Structures can show the parent of a compound that is named as a salt. Where two headings read alike, the source gives them in different places.
What was measured:
[1] = target: human JAK1 (a.a. 837-1142) (Homo sapiens, UniProt P23458); test: In vitro JAK kinase assay (HTRF, phosphorylation of biotinylated peptide), JAK1; format: biochemical; conditions: 1 mM ATP
How it was run: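 His-tagged human JAK1 catalytic domain (a.a. 837-1142), baculovirus/insect-cell expressed, phosphorylates a biotinylated peptide for 1 h at room temperature. Reaction stopped with EDTA; product detected by HTRF (SA-APC, Eu-Py20, 40 min binding). IC50 reported as ranges.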

JAK2 (a.a. 828-1132) = target: T1, JAK2 (a.a. 828-1132) (Homo sapiens, UniProt O60674); test: In vitro JAK kinase assay (HTRF, phosphorylation of biotinylated peptide), JAK2; format: biochemical; conditions: 1 mM ATP
T1 construct: JAK2 (a.a. 828-1132); His tag (N)
T1 sequence (O60674 828-1132): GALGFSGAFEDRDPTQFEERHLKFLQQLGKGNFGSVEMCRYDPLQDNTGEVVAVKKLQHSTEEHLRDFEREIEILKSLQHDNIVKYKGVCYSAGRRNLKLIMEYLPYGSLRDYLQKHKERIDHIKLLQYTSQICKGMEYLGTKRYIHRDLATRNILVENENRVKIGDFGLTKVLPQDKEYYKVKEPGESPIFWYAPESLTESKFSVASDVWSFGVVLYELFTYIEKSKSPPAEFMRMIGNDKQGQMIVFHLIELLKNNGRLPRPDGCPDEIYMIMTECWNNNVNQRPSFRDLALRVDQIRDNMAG
How it was run: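 His-tagged catalytic domains of human JAK1 (a.a. 837-1142) and JAK2 (a.a. 828-1132), baculovirus-expressed, phosphorylate a biotinylated peptide for 1 hour at room temperature. Stopped with EDTA; detected by HTRF using SA-APC and Eu-Py20 antibody after 40 min binding; values binned as ranges.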

human JAK1 (a.a. 837-1142), sequence (P23458 849-1154): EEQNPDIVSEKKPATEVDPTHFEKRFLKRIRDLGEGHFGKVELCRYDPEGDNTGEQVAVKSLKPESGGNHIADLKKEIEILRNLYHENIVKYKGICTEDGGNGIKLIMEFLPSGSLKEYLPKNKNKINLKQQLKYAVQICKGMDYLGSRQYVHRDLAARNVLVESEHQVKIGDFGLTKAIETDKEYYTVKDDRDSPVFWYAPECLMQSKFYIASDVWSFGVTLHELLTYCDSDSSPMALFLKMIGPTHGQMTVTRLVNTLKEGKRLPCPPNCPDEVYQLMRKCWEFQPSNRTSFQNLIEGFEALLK

Structure (SMILES) | IC50 ([1]; Table F) [nM] | IC50 (JAK2 (a.a. 828-1132); Table F) [nM] | further results
CN(C)Cc1cc(C(=O)N2CCN([C@H]3C[C@](CC#N)(n4cc(-c5ncnc6[nH]ccc56)cn4)C3)CC2)cc(C(F)(F)F)c1 [Example 39, {trans-3-{4-[3-[(dimethylamino)methyl]-5-(trifluoromethyl)benzoyl]piperazin-1-yl}-1-[4-(7H-pyrrolo[2,3-d]pyrimidin-4-yl)-1H-pyrazol-1-yl]cyclobutyl}acetonitrile] | – | – | IC50 ([1]; Table B, read-out: JAK1 IC50): < 10 nM; IC50 (JAK2 (a.a. 828-1132); Table B, read-out: JAK2 IC50): 25 to 100 nM
CNCc1cc(OC2CCN([C@H]3C[C@](CC#N)(n4cc(-c5ncnc6[nH]ccc56)cn4)C3)CC2)nc(C(F)(F)F)c1 [Example 132, {trans-3-(4-{[4-[(methylamino)methyl]-6-(trifluoromethyl)pyridin-2-yl]oxy}piperidin-1-yl)-1-[4-(7H-pyrrolo[2,3-d]pyrimidin-4-yl)-1H-pyrazol-1-yl]cyclobutyl}acetonitrile] | < 10 | 25 to 100 | –
CC(C)(O)c1cc(C(=O)N2CCN([C@H]3C[C@](CC#N)(n4cc(-c5ncnc6[nH]ccc56)cn4)C3)CC2)nc(C(F)(F)F)c1 [Example 75, {trans-3-(4-{[4-(1-hydroxy-1-methylethyl)-6-(trifluoromethyl)pyridin-2-yl]carbonyl}piperazin-1-yl)-1-[4-(7H-pyrrolo[2,3-d]pyrimidin-4-yl)-1H-pyrazol-1-yl]cyclobutyl}acetonitrile] | < 10 | 10 to 25 | –
N#CC[C@]1(n2cc(-c3ncnc4[nH]ccc34)cn2)C[C@@H](N2CCN(C(=O)NC3CCCC3)CC2)C1 [Example 109, 4-{cis-3-(cyanomethyl)-3-[4-(7H-pyrrolo[2,3-d]pyrimidin-4-yl)-1H-pyrazol-1-yl]cyclobutyl}-N-cyclopentylpiperazine-1-carboxamide] | < 10 | 25 to 100 | –
N#CC[C@]1(n2cc(-c3ncnc4[nH]ccc34)cn2)C[C@H](N2CCC(Oc3cc(CN4CCOCC4)nc(C(F)(F)F)n3)CC2)C1 [Example 149, {trans-3-(4-{[6-(morpholin-4-ylmethyl)-2-(trifluoromethyl)pyrimidin-4-yl]oxy}piperidin-1-yl)-1-[4-(7H-pyrrolo[2,3-d]pyrimidin-4-yl)-1H-pyrazol-1-yl]cyclobutyl}acetonitrile] | 25 to 100 | > 100 | –
N#CC[C@]1(n2cc(-c3ncnc4[nH]ccc34)cn2)C[C@H](N2CCN(C(=O)NC3CCCC3)CC2)C1 [Example 90, 4-{trans-3-(cyanomethyl)-3-[4-(7H-pyrrolo[2,3-d]pyrimidin-4-yl)-1H-pyrazol-1-yl]cyclobutyl}-N-cyclopentylpiperazine-1-carboxamide] | < 10 | 10 to 25 | –
N#CC[C@]1(n2cc(-c3ncnc4[nH]ccc34)cn2)C[C@H](N2CCC(Oc3cc(CNCCO)cc(C(F)(F)F)n3)CC2)C1 [Example 154, {trans-3-(4-{[4-{[(2-hydroxyethyl)amino]methyl}-6-(trifluoromethyl)pyridin-2-yl]oxy}piperidin-1-yl)-1-[4-(7H-pyrrolo[2,3-d]pyrimidin-4-yl)-1H-pyrazol-1-yl]cyclobutyl}acetonitrile] | < 10 | 25 to 100 | –
CN(CC(F)(F)F)C(=O)N1CCN([C@H]2C[C@](CC#N)(n3cc(-c4ncnc5[nH]ccc45)cn3)C2)CC1 [Example 84, 4-{trans-3-(cyanomethyl)-3-[4-(7H-pyrrolo[2,3-d]pyrimidin-4-yl)-1H-pyrazol-1-yl]cyclobutyl}-N-methyl-N-(2,2,2-trifluoroethyl)piperazine-1-carboxamide] | 25 to 100 | > 100 | –
N#CC[C@]1(n2cc(-c3ncnc4[nH]ccc34)cn2)C[C@H](N2CCN(C(=O)c3cc(C#N)cc(C(F)(F)F)n3)CC2)C1 [Example 71, 2-[(4-{trans-3-(cyanomethyl)-3-[4-(7H-pyrrolo[2,3-d]pyrimidin-4-yl)-1H-pyrazol-1-yl]cyclobutyl}piperazin-1-yl)carbonyl]-6-(trifluoromethyl)isonicotinonitrile] | < 10 | 25 to 100 | –
CN(C)Cc1cc(C(=O)N2CCN([C@H]3C[C@](CC#N)(n4cc(-c5ncnc6[nH]ccc56)cn4)C3)CC2)nc(C(F)(F)F)c1 [Example 65, {trans-3-(4-{[4-[(dimethylamino)methyl]-6-(trifluoromethyl)pyridin-2-yl]carbonyl}piperazin-1-yl)-1-[4-(7H-pyrrolo[2,3-d]pyrimidin-4-yl)-1H-pyrazol-1-yl]cyclobutyl}acetonitrile] | < 10 | 25 to 100 | –
CC[C@H](C)NC(=O)N1CCN([C@H]2C[C@](CC#N)(n3cc(-c4ncnc5[nH]ccc45)cn3)C2)CC1 [Example 103, 4-{trans-3-(cyanomethyl)-3-[4-(7H-pyrrolo[2,3-d]pyrimidin-4-yl)-1H-pyrazol-1-yl]cyclobutyl}-N-[(1S)-1-methylpropyl]piperazine-1-carboxamide] | < 10 | 25 to 100 | –
N#CC[C@]1(n2cc(-c3ncnc4[nH]ccc34)cn2)C[C@H](N2CCN(C(=O)c3ccc(F)c(F)c3)CC2)C1 [Example 15b, {trans-3-[4-(3,4-difluorobenzoyl)piperazin-1-yl]-1-[4-(7H-pyrrolo[2,3-d]pyrimidin-4-yl)-1H-pyrazol-1-yl]cyclobutyl}acetonitrile] | – | – | IC50 ([1]; Table B, read-out: JAK1 IC50): < 10 nM; IC50 (JAK2 (a.a. 828-1132); Table B, read-out: JAK2 IC50): 10 to 25 nM
N#CC[C@]1(n2cc(-c3ncnc4[nH]ccc34)cn2)C[C@H](N2CCC(Oc3cc(CN4CCOCC4)cc(C(F)(F)F)n3)CC2)C1 [Example 159, {trans-3-(4-{[4-(morpholin-4-ylmethyl)-6-(trifluoromethyl)pyridin-2-yl]oxy}piperidin-1-yl)-1-[4-(7H-pyrrolo[2,3-d]pyrimidin-4-yl)-1H-pyrazol-1-yl]cyclobutyl}acetonitrile] | < 10 | 25 to 100 | –
N#CC[C@]1(n2cc(-c3ncnc4[nH]ccc34)cn2)C[C@@H](N2CCN(C(=O)c3cccc(C(F)F)n3)CC2)C1 [Example 21a, {cis-3-(4-{[6-(difluoromethyl)pyridin-2-yl]carbonyl}piperazin-1-yl)-1-[4-(7H-pyrrolo[2,3-d]pyrimidin-4-yl)-1H-pyrazol-1-yl]cyclobutyl}acetonitrile] | – | – | IC50 ([1]; Table A, read-out: JAK1 IC50): < 10 nM; IC50 (JAK2 (a.a. 828-1132); Table A, read-out: JAK2 IC50): 25 to 100 nM
N#CC[C@]1(n2cc(-c3ncnc4[nH]ccc34)cn2)C[C@H](N2CCN(C(=O)N[C@@H]3CCOC3)CC2)C1 [Example 87, 4-{trans-3-(cyanomethyl)-3-[4-(7H-pyrrolo[2,3-d]pyrimidin-4-yl)-1H-pyrazol-1-yl]cyclobutyl}-N-[(3R)-tetrahydrofuran-3-yl]piperazine-1-carboxamide] | 10 to 25 | > 100 | –
CC(C)NC(=O)N1CCN([C@H]2C[C@@](CC#N)(n3cc(-c4ncnc5[nH]ccc45)cn3)C2)CC1 [Example 108, 4-{cis-3-(cyanomethyl)-3-[4-(7H-pyrrolo[2,3-d]pyrimidin-4-yl)-1H-pyrazol-1-yl]cyclobutyl}-N-isopropylpiperazine-1-carboxamide] | 10 to 25 | > 100 | –
CN(C)Cc1cc(OC2CCN([C@H]3C[C@](CC#N)(n4cc(-c5ncnc6[nH]ccc56)cn4)C3)CC2)nc(C(F)(F)F)n1 [Example 142, {trans-3-(4-{[6-[(dimethylamino)methyl]-2-(trifluoromethyl)pyrimidin-4-yl]oxy}piperidin-1-yl)-1-[4-(7H-pyrrolo[2,3-d]pyrimidin-4-yl)-1H-pyrazol-1-yl]cyclobutyl}acetonitrile] | 10 to 25 | > 100 | –
N#CC[C@]1(n2cc(-c3ncnc4[nH]ccc34)cn2)C[C@@H](N2CCN(C(=O)Nc3ccc(F)cc3C(F)(F)F)CC2)C1 [Example 3a, 4-{cis-3-(cyanomethyl)-3-[4-(7H-pyrrolo[2,3-d]pyrimidin-4-yl)-1H-pyrazol-1-yl]cyclobutyl}-N-[4-fluoro-2-(trifluoromethyl)phenyl]piperazine-1-carboxamide 2.4×(trifluoroacetate) Salt] | – | – | IC50 ([1]; Table A, read-out: JAK1 IC50): 25 to 100 nM; IC50 (JAK2 (a.a. 828-1132); Table A, read-out: JAK2 IC50): > 100 nM
COC(C)(C)c1cc(C(=O)N2CCN([C@H]3C[C@](CC#N)(n4cc(-c5ncnc6[nH]ccc56)cn4)C3)CC2)nc(C(F)(F)F)n1 [Example 69, {trans-3-(4-{[6-(1-methoxy-1-methylethyl)-2-(trifluoromethyl)pyrimidin-4-yl]carbonyl}piperazin-1-yl)-1-[4-(7H-pyrrolo[2,3-d]pyrimidin-4-yl)-1H-pyrazol-1-yl]cyclobutyl}acetonitrile] | < 10 | 25 to 100 | –
N#CC[C@]1(n2cc(-c3ncnc4[nH]ccc34)cn2)C[C@H](N2CCC(Oc3cc(CN4CCC[C@@H]4CO)cc(C(F)(F)F)n3)CC2)C1 [Example 162, {trans-3-(4-{[4-{[(2R)-2-(hydroxymethyl)pyrrolidin-1-yl]methyl}-6-(trifluoromethyl)pyridin-2-yl]oxy}piperidin-1-yl)-1-[4-(7H-pyrrolo[2,3-d]pyrimidin-4-yl)-1H-pyrazol-1-yl]cyclobutyl}acetonitrile] | < 10 | > 100 | –
N#CC[C@]1(n2cc(-c3ncnc4[nH]ccc34)cn2)C[C@@H](N2CCN(Cc3cncc(F)c3)CC2)C1 [Example 23a, {cis-3-{4-[(5-fluoropyridin-3-yl)methyl]piperazin-1-yl}-1-[4-(7H-pyrrolo[2,3-d]pyrimidin-4-yl)-1H-pyrazol-1-yl]cyclobutyl}acetonitrile] | – | – | IC50 ([1]; Table A, read-out: JAK1 IC50): 10 to 25 nM; IC50 (JAK2 (a.a. 828-1132); Table A, read-out: JAK2 IC50): > 100 nM
N#CC[C@]1(n2cc(-c3ncnc4[nH]ccc34)cn2)C[C@H](N2CCN(C(=O)c3ccnc(C(F)F)c3F)CC2)C1 [Example 11b, {trans-3-{4-[2-(difluoromethyl)-3-fluoroisonicotinoyl]piperazin-1-yl}-1-[4-(7H-pyrrolo[2,3-d]pyrimidin-4-yl)-1H-pyrazol-1-yl]cyclobutyl}acetonitrile] | – | – | IC50 ([1]; Table B, read-out: JAK1 IC50): < 10 nM; IC50 (JAK2 (a.a. 828-1132); Table B, read-out: JAK2 IC50): 25 to 100 nM

Reference: US10640506B2, “Cyclobutyl substituted pyrrolopyridine and pyrrolopyrimidines derivatives as JAK inhibitors” (Incyte Corporation, priority 2010, dated 2020)
